Source: ChEMBL document CHEMBL2176875, “Ago-allosteric modulators of human glucagon-like peptide 2 receptor” (Bioorg Med Chem Lett, 2012)
The source made the active and inactive calls. The rule behind the calls is not given here.

Key:
[1] = target: T1, Glucagon-like peptide 2 receptor (Homo sapiens) (UniProt O95838); assay: Positive ago-allosteric modulation of GLP2R overexpressed in human SE302 cells assessed as placental alkaline phosphatase activation at 6.3 uM measured on day 3 by Alamar Blue assay relative to 10 pM GLP2; assay type: cell-based
T1 sequence (whole entry): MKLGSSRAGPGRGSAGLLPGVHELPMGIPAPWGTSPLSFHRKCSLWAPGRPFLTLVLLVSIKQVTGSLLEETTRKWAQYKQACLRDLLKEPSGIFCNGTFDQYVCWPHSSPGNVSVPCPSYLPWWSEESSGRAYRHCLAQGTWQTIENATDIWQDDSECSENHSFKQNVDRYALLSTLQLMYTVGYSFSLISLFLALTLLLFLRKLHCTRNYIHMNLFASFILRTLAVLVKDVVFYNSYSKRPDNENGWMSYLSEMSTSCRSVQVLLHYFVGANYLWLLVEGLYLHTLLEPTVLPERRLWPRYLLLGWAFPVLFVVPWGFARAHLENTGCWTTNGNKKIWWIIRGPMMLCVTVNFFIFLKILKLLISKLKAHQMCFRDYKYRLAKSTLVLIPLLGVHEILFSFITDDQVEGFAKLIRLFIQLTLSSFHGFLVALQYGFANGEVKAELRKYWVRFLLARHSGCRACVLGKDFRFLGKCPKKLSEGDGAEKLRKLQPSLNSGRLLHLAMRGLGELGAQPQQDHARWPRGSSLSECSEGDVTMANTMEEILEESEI

[2] = target: T1, Glucagon-like peptide 2 receptor (Homo sapiens); assay: Positive ago-allosteric modulation of GLP2R overexpressed in human SE302 cells assessed as placental alkaline phosphatase activation at 6.3 uM measured on day 3 by Alamar Blue assay relative to 100 pM GLP2; assay type: cell-based
[3] = target: T1, Glucagon-like peptide 2 receptor (Homo sapiens); assay: (§1) Positive ago-allosteric modulation of GLP2R overexpressed in human SE302 cells assessed as placental alkaline phosphatase activation measured on day 3 by Alamar Blue assay; assay type: cell-based
[4] = target: T1, Glucagon-like peptide 2 receptor (Homo sapiens); assay: Positive ago-allosteric modulation of GLP2R overexpressed in human SE302 cells assessed as placental alkaline phosphatase activation at 12.5 uM measured on day 3 by Alamar Blue assay relative to 100 pM GLP2; assay type: cell-based
[5] = target: T2, Glucagon-like peptide 2 receptor (Homo sapiens, UniProt O95838); assay: as §1; assay type: cell-based
T2 sequence (O95838 whole entry): T1 sequence (whole entry)

[6] = target: T1, Glucagon-like peptide 2 receptor (Homo sapiens); assay: Positive ago-allosteric modulation of GLP2R overexpressed in human SE302 cells assessed as placental alkaline phosphatase activation at 25 uM measured on day 3 by Alamar Blue assay relative to 100 pM GLP2; assay type: cell-based
[7] = target: T1, Glucagon-like peptide 2 receptor (Homo sapiens); assay: Positive ago-allosteric modulation of GLP2R overexpressed in human SE302 cells assessed as reduction of GLP2-induced cAMP level at 3 to 10 uM after 30 mins; assay type: functional, cell-based
[8] = target: T1, Glucagon-like peptide 2 receptor (Homo sapiens); assay: Displacement of [125I]-Bolton Hunter labeled GLP2 from GLP2R overexpressed in human SE302 cell membranes at 10 uM after 2 hrs by gamma counter
[9] = target: T1, Glucagon-like peptide 2 receptor (Homo sapiens); assay: Displacement of [125I]-Bolton Hunter labeled GLP2 from GLP2R overexpressed in human SE302 cell membranes at 1 uM after 2 hrs by gamma counter
[10] = target: T1, Glucagon-like peptide 2 receptor (Homo sapiens); assay: Positive ago-allosteric modulation of GLP2R overexpressed in human SE302 cells assessed as increase in (Z)-methyl 2-(2-(2,5-dichlorothiophen-3-yl)-2-(hydroxyimino)ethylthio)benzoate-induced placental alkaline phosphatase activation measured on day 3 by Alamar Blue assay; assay type: cell-based
[11] = target: T1, Glucagon-like peptide 2 receptor (Homo sapiens); assay: Positive ago-allosteric modulation of GLP2R overexpressed in human SE302 cells assessed as placental alkaline phosphatase activation measured on day 3 by Alamar Blue assay relative to GLP2; assay type: cell-based
[12] = target: T1, Glucagon-like peptide 2 receptor (Homo sapiens); assay: Positive ago-allosteric modulation of GLP2R overexpressed in human SE302 cells assessed as placental alkaline phosphatase activation at 25 uM measured on day 3 by Alamar Blue assay relative to 10 pM GLP2; assay type: cell-based
[13] = target: T1, Glucagon-like peptide 2 receptor (Homo sapiens); assay: Positive ago-allosteric modulation of GLP2R overexpressed in human SE302 cells assessed as placental alkaline phosphatase activation at 50 uM measured on day 3 by Alamar Blue assay relative to 100 pM GLP2; assay type: cell-based
[14] = target: T1, Glucagon-like peptide 2 receptor (Homo sapiens); assay: Positive ago-allosteric modulation of GLP2R overexpressed in human SE302 cells assessed as placental alkaline phosphatase activation at 50 uM measured on day 3 by Alamar Blue assay relative to 10 pM GLP2; assay type: cell-based
[15] = target: T1, Glucagon-like peptide 2 receptor (Homo sapiens); assay: Displacement of [125I]-Bolton Hunter labeled GLP2 from GLP-2R overexpressed in human SE302 cell membranes up to 100 uM after 2 hrs by gamma counter
[16] = target: T1, Glucagon-like peptide 2 receptor (Homo sapiens); assay: Positive ago-allosteric modulation of GLP2R overexpressed in human SE302 cells assessed as increase in GLP2 (11 to 33)-induced placental alkaline phosphatase activation at 10 uM measured on day 3 by Alamar Blue assay relative to GLP2; assay type: cell-based
[17] = target: T1, Glucagon-like peptide 2 receptor (Homo sapiens); assay: Positive ago-allosteric modulation of GLP2R overexpressed in human SE302 cells assessed as GLP2 (3 to 33)-induced placental alkaline phosphatase activation at 10 uM measured on day 3 by Alamar Blue assay relative to GLP2; assay type: cell-based

For `COc1c(Br)cc(/C(CSc2ccccc2C(F)(F)F)=N/O)cc1C(C)(C)C`, the %max [1] was 714% and the %max [2] was 97%.

With `O/N=C(\CSC1CCCCC1)c1cc(Cl)sc1Cl` the Activity [3] was “inactive”.

With `Cn1nc(C2CC2)cc1/C(CSc1ccccc1)=N/O` the Activity [3] was “inactive”.

With `COc1c(N(C)C)cc(/C(CSc2ccccc2)=N/O)cc1C(C)(C)C` the %max [4] was 43%.

In the case of “H-DGSFSDEMNTILDNLAARDFINWLIQTKITD-OH [listing 1 of 2 here]”, the EC50 [5] is reported as 31 nM.

With `CCCOc1cccc(/C(CSc2ccccc2)=N/O)c1` the %max [6] was 9%.

H-NTILDNLAARDFINWLIQTKITD-OH was tested, and the Activity [7] was “Dose-dependent effect”, the Activity [8] was 100% and the Activity [9] was 88%. For the same molecule, the EC50 [5] was 1300 nM, the Activity [10] was “Dose-dependent effect” and the %max [11] was 11%.

In the case of `Cc1cccc(SC/C(=N\O)c2cc(Cl)sc2Cl)c1`, the %max [6] is reported as 30%.

For `O/N=C(\CSc1cccc2ccccc12)c1cc(Cl)sc1Cl`, the %max [6] was 23%.

For `COC(=O)c1ccccc1SC/C(=N\O)c1cc(Cl)sc1Cl`, the %max [6] was 39% and the %max [12] was 284%.

`O/N=C(\CSc1ccc(F)cc1)c1cc(Cl)sc1Cl` showed a %max [6] of 134% and a %max [12] of 945%.

Molecule `O/N=C(\CSc1ccc(C(F)(F)F)cc1)c1cc(Cl)sc1Cl` has a %max [6] of 16%.

With `CCc1ccccc1SC/C(=N\O)c1cc(Cl)sc1Cl` the %max [6] was 63%.

`Cc1cc(F)ccc1SC/C(=N\O)c1cc(Cl)sc1Cl` gave a %max [6] of 124%.

In the case of `Cc1ccc(SC/C(=N\O)c2cc(Cl)sc2Cl)cc1`, the %max [13] is reported as 3% and the %max [14] is reported as 65%.

Work on `O/N=C(\CSc1ccccc1)c1cccc(F)c1` yielded a %max [12] of 54%.

`O/N=C(\CSc1ccc(Cl)cc1)c1cc(Cl)sc1Cl` gave a %max [6] of 17% and a %max [12] of 293%.

With `O/N=C(\CSc1cccc(Cl)c1)c1cc(Cl)sc1Cl` the %max [6] was 53%.

`O/N=C(\CSCCCc1ccccc1)c1cc(Cl)sc1Cl` was tested, and the Activity [3] was “inactive”.

Molecule `O/N=C(\CSc1ccccc1F)c1cc(Cl)sc1Cl` has a %max [6] of 80%.

With `O/N=C(\CSc1ccccc1)c1ccccc1` the %max [14] was 4%.

With `O/N=C(\CSc1ccncc1C(F)(F)F)c1cc(Cl)sc1Cl` the %max [6] was 143%.

`Cc1cnccc1SC/C(=N\O)c1cc(Cl)sc1Cl` was tested, and the %max [13] was 44%.

Work on `CCC(C)n1nc(C(F)(F)F)cc1/C(CSc1ccccc1)=N/O` (stereo not drawn) yielded a %max [4] of 110%.

For `O/N=C(\CSCc1ccccc1)c1cc(Cl)sc1Cl`, the Activity [3] was “inactive”.

`COc1ccc(SC/C(=N\O)c2cc(Cl)sc2Cl)cc1` gave a %max [14] of 217%.

For `O/N=C(\CSc1ccncc1)c1cc(Cl)sc1Cl`, the Activity [15] was “inactive” and the %max [13] was 55%.

`CC(C)(C)c1ccccc1SC/C(=N\O)c1cc(Cl)sc1Cl` gave a %max [4] of 40%.

`COc1ccccc1SC/C(=N\O)c1cc(Cl)sc1Cl` was tested, and the Activity [3] was “inactive” and the %max [14] was 78%.

Molecule `O/N=C(\CSc1ccccc1Cl)c1cc(Cl)sc1Cl` has a %max [6] of 60%.

In the case of `O/N=C(\CSc1cccs1)c1cc(Cl)sc1Cl`, the %max [6] is reported as 40%.

For `CC(C)Oc1cccc(/C(CSc2ccccc2)=N/O)c1`, the %max [6] was 14%.

`COc1cccc(SC/C(=N\O)c2cc(Cl)sc2Cl)c1C` was tested, and the %max [6] was 31%.

`O=C(O)c1ccccc1SC/C(=N\O)c1cc(Cl)sc1Cl` was tested, and the Activity [3] was “inactive”.

`COc1cccc(/C(CSc2ccccc2)=N/O)c1` gave a %max [6] of 8%.

`O/N=C(\CSc1ccccc1)c1cccc(Cl)c1` gave a %max [12] of 46%.

In the case of `COc1c(C(=O)OC(C)(C)C)cc(/C(CSc2ccccc2)=N/O)cc1C(C)(C)C`, the %max [4] is reported as 12%.

`COc1c(C(=O)O)cc(/C(CSc2ccccc2)=N/O)cc1C(C)(C)C` was tested, and the Activity [3] was “inactive”.

`Cc1ccccc1SC/C(=N\O)c1cc(Cl)sc1Cl` showed a %max [6] of 90%.

Work on `CC(C)(C)OC(=O)c1cc(/C(CSc2ccccc2)=N/O)cc(C(C)(C)C)c1O` yielded a %max [6] of 4%.

Work on `COc1c(Br)cc(/C(CSc2ccccc2)=N/O)cc1C(C)(C)C` yielded a %max [4] of 43%.

Work on `O/N=C(\CSc1cccc(F)c1)c1cc(Cl)sc1Cl` yielded a %max [6] of 73%.

In the case of `Cc1ccc(SC/C(=N\O)c2cc(Cl)sc2Cl)c(C)c1`, the %max [4] is reported as 58%.

Molecule `O/N=C(\CSc1cccnc1)c1cc(Cl)sc1Cl` has a %max [13] of 27%.

With `Cc1ccc(C)c(SC/C(=N\O)c2cc(Cl)sc2Cl)c1` the %max [4] was 40%.

For `O/N=C(\CSc1ccccc1C(F)(F)F)c1cc(Cl)sc1Cl`, the %max [4] was 58%.

`CCC(CC)n1nc(C(F)(F)F)cc1/C(CSc1ccccc1)=N/O` was tested, and the %max [4] was 31%.

`O/N=C(\CSc1ccccc1-c1ccccc1)c1cc(Cl)sc1Cl` gave a %max [4] of 84%.

`Cc1cc(/C(CSc2ccccc2)=N/O)n(C)n1` was tested, and the Activity [3] was “inactive”.

Work on `Cn1nc(-c2ccccc2)cc1/C(CSc1ccccc1)=N/O` yielded a %max [6] of 14%.

`Cn1nc(C(C)(C)C)cc1/C(CSc1ccccc1)=N/O` was tested, and the Activity [3] was “inactive”.

`O/N=C(\CSc1ccccc1)c1cc(C(F)(F)F)nn1Cc1ccccc1` gave a %max [4] of 59%.

`O/N=C(\CSc1ccncc1-c1ccccc1)c1cc(Cl)sc1Cl` was tested, and the %max [4] was 102%.

In the case of `O/N=C(\CSc1ccccc1C(F)(F)F)c1cc(C(F)(F)F)nn1C1CCCC1`, the %max [1] is reported as 610% and the %max [2] is reported as 83%.

In the case of `O/N=C(\CSc1ccccc1)c1cccc(C(F)(F)F)c1`, the %max [12] is reported as 95%.

With `O/N=C(\CSc1ccccn1)c1cc(Cl)sc1Cl` the Activity [3] was “inactive”.

`O/N=C(\CSc1ccccc1)c1cc(C(F)(F)F)cc(C(F)(F)F)c1` was tested, and the %max [6] was 29% and the %max [12] was 517%.

In the case of `Cn1nc(C(F)(F)F)cc1/C(CSc1ccccc1)=N/O`, the %max [6] is reported as 13% and the Activity [3] is reported as “inactive”.

With `CC(C)(C)SC/C(=N\O)c1cc(Cl)sc1Cl` the Activity [3] was “inactive”.

With `O/N=C(\CSc1ccccc1)c1cccc(O)c1` the Activity [3] was “inactive”.

For `CC(C)(C)c1cccc(/C(CSc2ccccc2)=N/O)c1`, the %max [6] was 18% and the %max [12] was 244%.

For “H-DGSFSDEMNTILDNLAARDFINWLIQTKITD-OH [listing 2 of 2 here]”, the %max [11] was 59%.

Work on `O/N=C(\CSc1ccccc1)c1cccc(Br)c1` yielded a %max [12] of 42%.

`Cc1cccc(SC/C(=N\O)c2cc(Cl)sc2Cl)c1C` was tested, and the %max [6] was 54%.

`N#Cc1cccc(/C(CSc2ccccc2)=N/O)c1` was tested, and the %max [14] was 8%.

In the case of `Cc1cccc(C)c1SC/C(=N\O)c1cc(Cl)sc1Cl`, the %max [6] is reported as 10%.

In the case of `COc1cccc(SC/C(=N\O)c2cc(Cl)sc2Cl)c1`, the %max [12] is reported as 144% and the Activity [3] is reported as “inactive”.

`CCCn1nc(C(F)(F)F)cc1/C(CSc1ccccc1)=N/O` showed a %max [6] of 71%.

Molecule `O/N=C(\CSc1ccccc1)c1cc(C(F)(F)F)nn1C1CCC1` has a %max [6] of 99%.

`CC(C)(C)c1cc(/C(CSc2ccccc2)=N/O)cc(C(C)(C)C)c1` was tested, and the Activity [16] was “Active”, the %max [6] was 31% and the Activity [17] was “Active”.

For `CCSC/C(=N\O)c1cc(Cl)sc1Cl`, the Activity [3] was “inactive”.

For `O/N=C(\CSc1ccccc1)c1cc(C(F)(F)F)nn1C1CCCC1`, the %max [6] was 127%.

For `CC(C)n1nc(C(F)(F)F)cc1/C(CSc1ccccc1)=N/O`, the %max [6] was 87%.

Molecule `CCc1cnccc1SC/C(=N\O)c1cc(Cl)sc1Cl` has a %max [6] of 59%.
